US20210345613A1, “HERBICIDAL PYRIMIDINE COMPOUNDS” (BASF SE, priority 2016, published 2021)

Tests used:
Format in all cases: in vivo
Avena fatua = test: greenhouse herbicidal test, post-emergence treatment; settings: post-emergence method, application rate 2000 g/ha, scale from 0 to 100, test period 2 to 4 weeks
Excerpt: (§1) The seeds of the test plants were sown separately for each species. For the post-emergence treatment, the test plants were first grown to a height of 3 to 15 cm, depending on the plant habit, and only then treated with the active ingredients which had been suspended or emulsified in water. For this purpose, the test plants were either sown directly and grown in the same containers, or they were first grown separately as seedlings and transplanted into the test containers a few days prior to treatment. Depending on the species, the plants were kept at 10-25° C. or 20-35° C., respectively. The test period extended over 2 to 4 weeks. During this time, the plants were tended, and their response to the individual treatments was evaluated. Evaluation was carried out using a scale from 0 to 100. 100 means no emergence of the plants, or complete destruction of at least the aerial moieties, and 0 means no damage, or normal course of growth. A good herbicidal activity is given at values of at least 70 and a very good herbicidal activity is given at values of at least 85. The plants used in the greenhouse experiments were of the following species: [table]

Echinocloa crus-galli [1] = test: as above; settings: post-emergence method, scale from 0 to 100, test period 2 to 4 weeks
Excerpt: as §1

Setaria viridis = test: as above; settings: post-emergence method, scale from 0 to 100, test period 2 to 4 weeks
Excerpt: as §1

Echinocloa crus-galli [2] = test: greenhouse herbicidal test, pre-emergence treatment; settings: pre-emergence method, scale from 0 to 100, test period 2 to 4 weeks
Excerpt: (§2) The seeds of the test plants were sown separately for each species. For the pre-emergence treatment, the active ingredients, which had been suspended or emulsified in water, were applied directly after sowing by means of finely distributing nozzles. The containers were irrigated gently to promote germination and growth and subsequently covered with transparent plastic hoods until the plants had rooted. This cover caused uniform germination of the test plants, unless this had been impaired by the active ingredients. Depending on the species, the plants were kept at 10-25° C. or 20-35° C., respectively. The test period extended over 2 to 4 weeks. During this time, the plants were tended, and their response to the individual treatments was evaluated. Evaluation was carried out using a scale from 0 to 100. 100 means no emergence of the plants, or complete destruction of at least the aerial moieties, and 0 means no damage, or normal course of growth. A good herbicidal activity is given at values of at least 70 and a very good herbicidal activity is given at values of at least 85. The plants used in the greenhouse experiments were of the following species: [table]

Apera spica-venti = test: as above; settings: pre-emergence method, application rate 2000 g/ha, scale from 0 to 100, test period 2 to 4 weeks
Excerpt: as §2

Alopecurus myosuroides = test: greenhouse herbicidal test, post-emergence treatment; settings: post-emergence method, application rate 2000 g/ha, scale from 0 to 100, test period 2 to 4 weeks
Excerpt: as §1

| Compound | herbicidal activity against AVEFA (Avena fatua) | herbicidal activity against ECHCG (Echinocloa crus-galli [1]; application rate 2000 g/ha) | herbicidal activity against ECHCG (Echinocloa crus-galli [2]; application rate 2000 g/ha) | herbicidal activity against APESV (Apera spica-venti) | herbicidal activity against ALOMY (Alopecurus myosuroides) | further results |
| --- | --- | --- | --- | --- | --- | --- |
| Cc1nc(C)c(-c2nc(C3CC3)ncc2-c2ncccc2Cl)o1 [Ex.46] | very good (a very good herbicidal activity is given at values of at least 85) | very good (a very good herbicidal activity is given at values of at least 85) | very good (a very good herbicidal activity is given at values of at least 85) | very good (a very good herbicidal activity is given at values of at least 85) |  | herbicidal activity against SETVI (Setaria viridis; application rate 2000 g/ha): very good (a very good herbicidal activity is given at values of at least 85) |
| Clc1cccnc1-c1cnc(C2CC2)nc1/C=C/c1ccco1 [Ex.25] |  | very good (a very good herbicidal activity is given at values of at least 85) | very good (a very good herbicidal activity is given at values of at least 85) | very good (a very good herbicidal activity is given at values of at least 85) | very good (a very good herbicidal activity is given at values of at least 85) | herbicidal activity against SETVI (Setaria viridis; application rate 2000 g/ha): very good (a very good herbicidal activity is given at values of at least 85) |
| OC(Cc1nc(C2CC2)ncc1-c1ncccc1Cl)c1ccccc1 (centres unmarked) [Ex.36] |  | very good (a very good herbicidal activity is given at values of at least 85) |  |  | very good (a very good herbicidal activity is given at values of at least 85) | herbicidal activity against SETVI (Setaria viridis; application rate 2000 g/ha): very good (a very good herbicidal activity is given at values of at least 85) |
| CCOC(=O)Cc1nc(C2CC2)ncc1-c1ncccc1Cl [Ex.20] | very good (a very good herbicidal activity is given at values of at least 85) | very good (a very good herbicidal activity is given at values of at least 85) | very good (a very good herbicidal activity is given at values of at least 85) |  | very good (a very good herbicidal activity is given at values of at least 85) |  |
| OC(Cc1nc(C2CC2)ncc1-c1ncccc1Cl)c1ccco1 (centres unmarked) [Ex.24] | good (A good herbicidal activity is given at values of at least 70) |  | very good (a very good herbicidal activity is given at values of at least 85) | very good (a very good herbicidal activity is given at values of at least 85) | very good (a very good herbicidal activity is given at values of at least 85) | herbicidal activity against SETVI (Setaria viridis; application rate 2000 g/ha): good (A good herbicidal activity is given at values of at least 70) |
| OC1(Cc2nc(C3CC3)ncc2-c2ncccc2Cl)CCCC1 [Ex.26] |  |  |  |  |  | herbicidal activity against SETVI (Setaria viridis; application rate 2000 g/ha): very good (a very good herbicidal activity is given at values of at least 85) |
| Cc1occc1-c1nc(C2CC2)ncc1-c1ncccc1Br [Ex.12] | good (A good herbicidal activity is given at values of at least 70) | good (A good herbicidal activity is given at values of at least 70) |  | very good (a very good herbicidal activity is given at values of at least 85) | good (A good herbicidal activity is given at values of at least 70) |  |
| Cc1ccoc1-c1nc(C2CC2)ncc1-c1ncccc1Br [Ex.18] | very good (a very good herbicidal activity is given at values of at least 85) | good (A good herbicidal activity is given at values of at least 70) |  |  |  |  |
| Fc1cccnc1-c1cnc(C2CC2)nc1-c1ccco1 [Ex.9] |  | good (A good herbicidal activity is given at values of at least 70) |  |  |  |  |
| OC(Cc1nc(C2CC2)ncc1-c1ncccc1Cl)c1ccoc1 (centres unmarked) [Ex.38] |  | very good (a very good herbicidal activity is given at values of at least 85) | very good (a very good herbicidal activity is given at values of at least 85) |  |  |  |
| Clc1cccnc1-c1cnc(C2CC2)nc1C=C1CCCCC1 [Ex.42] |  | good (A good herbicidal activity is given at values of at least 70) |  |  |  |  |
| OC(c1ccccc1)c1nc(C2CC2)ncc1-c1ccccn1 (centres unmarked) [Ex. 14] |  |  |  |  |  | herbicidal activity against SETVI (Setaria viridis; application rate 2000 g/ha): very good (a very good herbicidal activity is given at values of at least 85) |
| Cc1occc1-c1nc(C2CC2)ncc1-c1ncccc1F [Ex.13] |  | good (A good herbicidal activity is given at values of at least 70) |  |  |  | herbicidal activity against SETVI (Setaria viridis; application rate 2000 g/ha): good (A good herbicidal activity is given at values of at least 70) |
| Cc1ccc(-c2nc(C3CC3)ncc2-c2ncccc2Br)o1 [Ex.17] | very good (a very good herbicidal activity is given at values of at least 85) |  | very good (a very good herbicidal activity is given at values of at least 85) | very good (a very good herbicidal activity is given at values of at least 85) |  |  |
| Clc1cccnc1-c1cnc(C2CC2)nc1C=C1CCCC1 [Ex.28] | good (A good herbicidal activity is given at values of at least 70) | very good (a very good herbicidal activity is given at values of at least 85) | very good (a very good herbicidal activity is given at values of at least 85) | very good (a very good herbicidal activity is given at values of at least 85) | very good (a very good herbicidal activity is given at values of at least 85) |  |
| Brc1ccsc1-c1cnc(C2CC2)nc1-c1ccco1 [Ex.6] |  |  |  |  |  | herbicidal activity against SETVI (Setaria viridis; application rate 1000 g/ha): very good (a very good herbicidal activity is given at values of at least 85) |
| C/C=C/c1nc(C2CC2)ncc1-c1ncccc1Cl [Ex.30] |  | good (A good herbicidal activity is given at values of at least 70) | very good (a very good herbicidal activity is given at values of at least 85) | very good (a very good herbicidal activity is given at values of at least 85) | very good (a very good herbicidal activity is given at values of at least 85) |  |
| Brc1cccnc1-c1cnc(C2CC2)nc1-c1ccco1 [Ex.8] |  |  |  | very good (a very good herbicidal activity is given at values of at least 85) |  |  |
| Brc1cccnc1-c1cnc(C2CC2)nc1-c1ccco1 [Ex.10] |  |  |  |  | good (A good herbicidal activity is given at values of at least 70) |  |
| Clc1cccnc1-c1cnc(C2CC2)nc1C=Cc1ccoc1 [Ex.39] |  | very good (a very good herbicidal activity is given at values of at least 85) | very good (a very good herbicidal activity is given at values of at least 85) | very good (a very good herbicidal activity is given at values of at least 85) | good (A good herbicidal activity is given at values of at least 70) |  |
| Cc1nc(C2CC2)ncc1-c1cc(Br)sc1Br [Ex.15] |  |  |  |  |  | herbicidal activity against ECHCG (Echinocloa crus-galli [2]; application rate 500 g/ha): good (A good herbicidal activity is given at values of at least 70) |
| Fc1cccnc1-c1cnc(C2CC2)nc1-c1ccoc1 [Ex.11] |  |  |  |  |  | herbicidal activity against ECHCG (Echinocloa crus-galli [1]; application rate 1000 g/ha): good (A good herbicidal activity is given at values of at least 70) |
| CCC=Cc1nc(C2CC2)ncc1-c1ncccc1Cl [Ex.45] |  |  | very good (a very good herbicidal activity is given at values of at least 85) | good (A good herbicidal activity is given at values of at least 70) | good (A good herbicidal activity is given at values of at least 70) |  |
| Clc1cccnc1-c1cnc(C2CC2)nc1-c1ccoc1 [Ex.27] | very good (a very good herbicidal activity is given at values of at least 85) | very good (a very good herbicidal activity is given at values of at least 85) | very good (a very good herbicidal activity is given at values of at least 85) | very good (a very good herbicidal activity is given at values of at least 85) | very good (a very good herbicidal activity is given at values of at least 85) |  |
